Test results from patent publication US20100292229A1, “TRYPHOSTIN-ANALOGS FOR THE TREATMENT OF CELL PROLIFERATIVE DISEASES” (The Board of Regents of the University of Texas System, priority 2006, published 2010).

How the values were obtained:
Assay type in all cases: cell-based
BCR-ABL (T315I) = target: T1, BCR-ABL (T315I) (Homo sapiens, UniProt P00519, T315I); experiment: pBCR-ABL and BCR-ABL immunoblot in BV-173R cells; design: dose or concentration left out as unconfirmed; settings: 1 h
T1 construct: endogenous in cells; host or cells: BV-173R; the other entry of the earlier key: BCR (P11274, Breakpoint cluster region protein)
Experimental: Actin was probed as protein loading control.
Western Blot analysis. […] Western blotting was performed using specific primary antibodies Peroxidase-conjugated affiniPure anti-Mouse Anti-Rabbit secondary antibodies (Jackson Immunoresearch Laboratories, West Grove, Pa.). The proteins were visualized with ECL Plus reagents (Amersham Biosciences).

c-myc = target: T2, c-myc (Homo sapiens, UniProt P01106); experiment: c-myc protein immunoblot in MM-1 cells
T2 construct: endogenous in cells; host or cells: MM-1 cells
Experimental: Top: MM-1 cells were incubated with 5 μM Degrasyn for the interval noted before cell lysates were prepared and subjected to immunoblotting for c-myc and actin as a protein loading control.
Middle: MM-1 cells were treated with the indicated concentration of Degrasyn for 1 h before lysates were immunoblotted for c-myc and actin.
Bottom: MM-1 cells were treated as indicated before extraction of total RNA (TRIzol). RNA was resolved by agarose electrophoresis, transferred to a membrane and hybridized with a c-myc probe to determine the level of c-myc RNA in each sample. The ethidium bromide stained gel was photographed and 28S RNA content was detected as a measure of RNA content in each lane.
MM-1 cells were pretreated with protease/proteosome inhibitors (LLnL; LLnM; E-64d; MG132; PS341; Chloroquine; Ammonium Chloride; Cycloheximide) for 2 h before the addition of 5 μM Degrasyn or vehicle alone (DMSO as indicated) for an additional 2 h. Cell lysates were prepared and equal protein aliquots were subjected to immunoblotting for c-myc, Max (a c-myc binding partner) or actin as a protein loading control.
Pictured: MM-1 cells were treated with biotinylated Degrasyn (Bio-Deg) or Degrasyn (at the indicated concentration) for 1 h before analyzing effects on c-myc as described in FIG. 15.
(§1) Western Blot analysis. Cells were harvested, washed twice in cold 1×PBS and lysed in modified RIPA lysis buffer (150 mM NaCl, 1% NP-40, 0.5% Na-deoxycholate [DOC], 0.1% Na-dodecyl sulfate [SDS], 50 mM Tris-HCl (pH 7.5), 1 mM EDTA, 1 mM NaF, 2 mM Na-vanadate, with protease inhibitors (1 mM PMSF, 1 mM benzamidine, 10 μg/ml aprotinin, 10 μg/ml leupeptin) on ice for 30 min. The lysed cells were centrifuged at 13,000 rpm for 30 min and the supernatant collected. The protein concentration of the cell lysate was determined by the Bradford Protein Assay. Fifty to 60 μg of protein were resolved in a 10% SDS-PAGE, and transferred to a PVDF membrane. Western blotting was performed using specific primary antibodies Peroxidase-conjugated affiniPure anti-Mouse Anti-Rabbit secondary antibodies (Jackson Immunoresearch Laboratories, West Grove, Pa.). The proteins were visualized with ECL Plus reagents (Amersham Biosciences).

BCR-ABL = target: T3, BCR-ABL (Homo sapiens, UniProt P00519); experiment: BCR-ABL protein level and distribution in K562 cells
T3 construct: The BCR-ABL expressing CML cell line (K562); endogenous in cells; host or cells: K562; the other entry of the earlier key: BCR (P11274, Breakpoint cluster region protein)
Experimental: Top: The BCR-ABL expressing CML cell line (K562) was incubated with 5 μM Degrasyn for the interval noted before cells were lysed and protein extracts were analyzed for BCR-ABL protein (using anti-Abl) levels by immunoblotting. The blot was stripped and reprobed for actin as a protein loading control.
Bottom: RNA from cells treated as described above was isolated (TRIzol Reagent) and used as a template to generate cDNA. This material was then used to prime a real-time PCR reaction for bcr-abl and ubiquitin (Ub) transcripts. The values are reported in terms of the ratio of bcr-abl to Ub.
K562 cells were treated with Degrasyn (2 h, 5 μM) before cells were lysates were prepared and analyzed for BCR-ABL, c-Abl and BCR protein levels. Actin was probed on the stripped blot to control for protein loading.
K562 cells were treated with nothing (Control), vehicle (DMSO; 0.1%), 5 μM Degrasyn or 5 μM geldanamycin for the interval indicated. Cell lysates were prepared and BCR-ABL, HSP70 and Actin were subjected to immunoblotting.
K562 cells were treated with […] Degrasyn for 1 to 2 h before equal protein cell extracts were immunoblotted for BCR-ABL, c-Abl, BCR, HSP90, HSP70 and actin.
K562 cells were treated with Degrasyn (5 μM) for the interval indicated before cell lysates were prepared (Soluble Fraction; prepared in buffer containing 1% NP-40, 0.5% Na-deoxycholate, 0.1% Na-dodecyl sulfate). […]
as §1, with “Western blotting was performed using specific primary antibodies Peroxidase-conjugated affiniPure anti-Mouse Anti-Rabbit secondary antibodies (Jackson Immunoresearch Laboratories, West Grove, Pa.). The proteins were visualized with ECL Plus reagents (Amersham Biosciences).” left out
Real-Time Quantitative TR-PCR analysis of bcr/abl mRNA. […]

T2 sequence (P01106 16-454 limits assumed): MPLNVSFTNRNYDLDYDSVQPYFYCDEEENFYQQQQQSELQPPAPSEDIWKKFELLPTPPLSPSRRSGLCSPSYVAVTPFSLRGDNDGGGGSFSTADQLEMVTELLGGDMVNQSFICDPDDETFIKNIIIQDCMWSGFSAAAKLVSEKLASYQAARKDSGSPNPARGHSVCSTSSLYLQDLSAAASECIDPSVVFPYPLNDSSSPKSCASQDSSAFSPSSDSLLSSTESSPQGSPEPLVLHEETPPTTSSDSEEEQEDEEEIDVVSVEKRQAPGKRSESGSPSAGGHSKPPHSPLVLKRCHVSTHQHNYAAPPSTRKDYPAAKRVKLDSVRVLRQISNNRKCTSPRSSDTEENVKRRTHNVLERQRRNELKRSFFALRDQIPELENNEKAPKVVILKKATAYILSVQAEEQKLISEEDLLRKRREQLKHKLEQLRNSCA

CCC[C@H](NC(=O)/C(C#N)=C/c1cccc(Br)n1)c1ccccc1 [Degrasyn]
pBCR-ABL and BCR-ABL protein levels, BV-173R (BCR-ABL (T315I)): reduced BCR-ABL protein levels in both w/t and mutant BCR-ABL expressing cells
c-myc protein content and c-myc RNA (c-myc): reduces c-myc protein content without effecting c-myc gene expression
c-myc protein, time course (c-myc; 5 μM): caused a rapid reduction of c-myc protein
c-myc protein, concentration dependence (c-myc; 1 h): caused a concentration dependent reduction in c-myc protein levels
c-myc protein levels (c-myc; FIG. 21, 1 h): reduced c-myc protein levels
Cytoplasmic staining of BCR-ABL (microscopy) (BCR-ABL; 5 μM): reduced cytoplasmic staining of BCR-ABL
BCR-ABL, c-Abl, BCR, HSP90, HSP70 levels (BCR-ABL; 5 µM, 1 to 2 h): down-regulated
BCR-ABL, c-Abl and BCR protein levels (BCR-ABL; 2 h, 5 μM): reduced BCR-ABL protein levels but had minimal effects on c-Abl and BCR
